Data as given in publication PMC11356900, “Synthesis, Structural Properties and Biological Activities of Novel Hydrazones of 2-, 3-, 4-Iodobenzoic Acid” (Molecules, 2024).
≈ marks a conversion by molar mass, not a printed value.

Columns and labels:
Gram-positive bacteria = test: Broth microdilution, summary over reference Gram-positive bacteria; assay type: cell-based
Text: (§1) Procedures of in vitro antimicrobial assays are described in Supplementary Materials.
(§2) 2. Microbiology – in vitro antimicrobial activity assays […]
(§3) using the broth microdilution method according to the European Committee on Antimicrobial Susceptibility Testing (EUCAST) and Clinical and Laboratory Standards Institute guidelines against a panel of reference and clinical or saprophytic strains of mi croorganisms, including the Gram-positive bacteria: Staphylococcus aureus ATCC 43300 (Methi-cillin Resistant S. aureus – MRSA), Staphylococcus aureus ATCC 29213 (Methicillin Susceptible S. aureus – MSSA), Staph-ylococcus epidermidis ATCC 12228, Micrococcus luteus ATCC 10240, Bacillus subtilis ATCC 6633 and Bacillus cereus ATCC 10876), Gram-negative bacteria: Bordetella bronchiseptica ATCC 4617, Escherichia coli ATCC 25922, Klebsiella pneumoniae ATCC 13883, Proteus mirabilis ATCC 12453, Salmonella typhimurium ATCC 14028 and Pseudomonas aeruginosa ATCC 9027, and fungi belonging to yeasts: Candida albicans ATCC 10231, Candida albicans ATCC 2091, Candida parapsilosis ATCC 22019, Candida glabrata ATCC 90030 and Candida krusei ATCC 14243. The microorganisms belonging to ATCC originated from American Type Culture Collection, routinely used for the evaluation of antimicrobials. All the used microbial cultures were first subcultured on nutrient agar or Sabouraud agar at 35°C for 18-24 h or 30°C for 24-48 h for bacteria […]
(§4) The surface of Mueller-Hinton agar (for bacteria) and RPMI 1640 with MOPS (for fungi) were inoculated with the suspensions of bacterial or fungal species. Microbial suspensions were prepared in sterile saline with an optical density of McFarland standard scale 0.5. The samples containing the compounds were dissolved in dimethyl sulfoxide (DMSO).
(§5) Furthermore, the bacterial and fungal suspensions put onto the Petri dishes with solid media containing 2 mg/mL of the tested compounds followed were incubated at 37°C for 24h and 30°C for 48h for bacteria and fungi, respectively.
(§6) The inhibition of microbial growth was estimated comparing with a control culture prepared without any tested sam- […]
(§7) antifungal compounds, respectively.
(§8) Subsequently, MIC (Minimal Inhibitory Concentration) of the compounds was examined by the microdilution broth method, using their two-fold dilutions in Mueller-Hinton broth (for bacteria) and RPMI 1640 broth with MOPS (for fungi) prepared in the 96-well polystyrene plates. The final concentrations of the compounds ranged from 1000 to 0.488 µg/mL. Microbial suspensions were prepared in 0.85% NaCl with an optical density of 0.5 McFarland standard. Next each bacterial or fungal suspension was added per each well containing broth and various concentrations of the exam-ined compounds. After incubation, the MIC was assessed spectrophotometrically as the lowest concentration of the […]
(§9) Appropriate DMSO, growth and sterile controls were carried out. The medium with no tested substances was used as a control The MBC (Minimal Bactericidal Concentration) and MFC (Minimal Fungicidal Concentration) are defined as the lowest concentration of the compounds that is required to kill a particular bacterial or fungal species. The MBC/MFC was determined by removing the culture used for the MIC determination from each well and spotted onto the appro-priate agar medium. The plates were incubated under appropriate conditions for bacteria and fungi. The lowest com-pounds concentration with no visible growth observed was assessed as a bactericidal/fungicidal concentration. All the experiments were repeated three times and the representative data are presented.
(§10) 1. European Committee for Antimicrobial Susceptibility Testing (EUCAST) Determination of minimum inhibitory con-centrations (MICs) of antibacterial agents by broth dilution. EUCAST discussion document E. Dis 5.1. Clin. Microbiol.
(§11) 2. Clinical and Laboratory Standards Institute. Reference method for broth dilution antifungal susceptibility testing of […]

[1] = test system: Bacillus cereus ATCC 10876; test: Broth microdilution MIC/MBC; settings: Bacillus cereus, ATCC10876
[2] = test system: Staphylococcus epidermidis ATCC 12228; test: Broth microdilution MIC/MBC; settings: ATCC12228
[3] = test system: Escherichia coli ATCC 25922; test: Broth microdilution MIC/MBC; settings: ATCC25922
[4] = test system: Micrococcus luteus ATCC 10240; test: Broth microdilution MIC/MBC; settings: Micrococcus luteus, ATCC10240
[5] = test system: Staphylococcus aureus ATCC 43300; test: Broth microdilution MIC/MBC; settings: ATCC43300 / MRSA
[6] = test system: Bacillus subtilis ATCC 6633; test: Broth microdilution MIC/MBC; settings: ATCC6633
[7] = test system: Klebsiella pneumoniae ATCC 13883; test: Broth microdilution MIC/MBC; settings: ATCC13883
[8] = test system: Staphylococcus aureus ATCC 25923; test: Broth microdilution MIC/MBC; settings: Staphylococcus aureus, ATCC25923
[9] = test system: Candida albicans ATCC 10231; test: Broth microdilution MIC/MFC; assay type: cell-based; settings: ATCC10231, read-out: MIC
Text: as §1, §2, §3, §4, §5, §6, §7, §8, §9, §10, §11

[10] = test system: Candida albicans ATCC 2091; test: Broth microdilution MIC/MFC; assay type: cell-based; settings: ATCC2091, read-out: MIC
Text: as §1, §2, §3, §4, §5, §6, §7, §8, §9, §10, §11

[11] = test system: Candida krusei ATCC 14243; test: Broth microdilution MIC/MFC; assay type: cell-based; settings: Pichia kudriavzevii, ATCC14243, read-out: MIC
Text: as §1, §2, §3, §4, §5, §6, §7, §8, §9, §10, §11

[12] = test system: Candida glabrata ATCC 90030; test: Broth microdilution MIC/MFC; assay type: cell-based; settings: Nakaseomyces glabratus, ATCC90030, read-out: MIC
Text: as §1, §2, §3, §4, §5, §6, §7, §8, §9, §10, §11

[13] = test system: Candida parapsilosis ATCC 22019; test: Broth microdilution MIC/MFC; assay type: cell-based; settings: Lodderomyces parapsilosis; for MIC: ATCC22019, read-out: MIC
Text: as §1, §2, §3, §4, §5, §6, §7, §8, §9, §10, §11

[14] = test system: Pseudomonas aeruginosa ATCC 9027; test: Broth microdilution MIC/MBC; settings: ATCC9027
[15] = test system: Staphylococcus aureus ATCC 29213; test: Broth microdilution MIC/MBC; settings: ATCC29213
[16] = test system: Salmonella typhimurium ATCC 14028; test: Broth microdilution MIC/MBC; settings: Salmonella enterica
[17] = test system: Bordetella bronchiseptica ATCC 4617; test: Broth microdilution MIC/MBC; settings: ATCC4617
[18] = test system: Proteus mirabilis ATCC 12453; test: Broth microdilution MIC/MBC; settings: ATCC12453

| Compound | MIC [1] [µg/mL] | MBC [2] [µg/mL] | MIC [2] [µg/mL] | MIC [3] [µg/mL] | MBC [4] [µg/mL] | MIC [4] [µg/mL] | MIC [5] [µg/mL] | MBC [6] [µg/mL] | MIC [6] [µg/mL] | MIC [7] [µg/mL] | MIC [8] [µg/mL] | MIC [9] [µg/mL] | MIC [10] [µg/mL] | MIC [11] [µg/mL] | MIC [12] [µg/mL] | MIC [13] [µg/mL] | MIC [14] [µg/mL] | MIC [15] [µg/mL] | MIC [16] [µg/mL] | MIC [17] [µg/mL] | also measured |
| --- | --- | --- | --- | --- | --- | --- | --- | --- | --- | --- | --- | --- | --- | --- | --- | --- | --- | --- | --- | --- | --- |
| NNC(=O)c1cccc(I)c1 [Compound 5, 3-iodobenzohydrazide] | > 1000 | > 1000 | 1000 (≈ 3.82 mM) | > 1000 | > 1000 | 1000 (≈ 3.82 mM) | > 1000 | > 1000 | 1000 (≈ 3.82 mM) | > 1000 | > 1000 | > 1000 | > 1000 | > 1000 | > 1000 | > 1000 | > 1000 | > 1000 | > 1000 | > 1000 | MIC (Gram-positive bacteria): 31.2 to 1000 µg/mL (≈ 0.119 to 3.82 mM); melting point: 134 to 140 °C; MIC [18]: > 1000 µg/mL |
| NNC(=O)c1ccc(I)cc1 [Compound 6, 4-iodobenzohydrazide] | > 1000 | > 1000 | 1000 (≈ 3.82 mM) | > 1000 | > 1000 | 500 (≈ 1.91 mM) | > 1000 | > 1000 | 1000 (≈ 3.82 mM) | > 1000 | > 1000 | > 1000 | > 1000 | > 1000 | > 1000 | 250 (≈ 0.954 mM) | > 1000 | > 1000 | > 1000 | > 1000 | MFC ([13]; ATCC22019, read-out: MFC): > 1000 µg/mL; melting point: 161 to 162 °C; MIC [18]: > 1000 µg/mL |
| O=C(N/N=C/c1cccc([N+](=O)[O-])c1O)c1cccc(I)c1 [Compound 15, N-[(2-hydroxy-3-nitrophenyl)methylidene]-3-iodobenzohydrazide] | 125 (≈ 0.304 mM) | 125 (≈ 0.304 mM) | 31.2 (≈ 0.076 mM) | > 1000 | 125 (≈ 0.304 mM) | 31.2 (≈ 0.076 mM) | 1000 (≈ 2.43 mM) | 500 (≈ 1.22 mM) | 125 (≈ 0.304 mM) | > 1000 | 250 (≈ 0.608 mM) | > 1000 | > 1000 | > 1000 | > 1000 | > 1000 | > 1000 | 250 (≈ 0.608 mM) | > 1000 | > 1000 | MIC (Gram-positive bacteria): 31.2 to 500 µg/mL (≈ 0.076 to 1.22 mM); MBC [1]: 250 µg/mL (≈ 0.608 mM); MBC [5]: > 1000 µg/mL; MBC [8]: > 1000 µg/mL; MBC [15]: > 1000 µg/mL; melting point: 190 to 199 °C; MIC [18]: > 1000 µg/mL |
